Tests used:
Format in all cases: cell-based
human CXCR3A = human CXCR3A (Homo sapiens (Human), UniProt P49682); assay: FLIPR assay (CXCL10-induced calcium signal); conditions: CHO-K1 cells expressing human CXCR3A coupled to Galpha(16); CXCL10 agonist 20 nM; mean values
Text: (§1) In the case where IC50 values have been determined several times for the same compound, mean values are given.

CXCR3 = CXCR3 (Homo sapiens (Human), UniProt P49682); assay: Receptor internalization assay in human whole blood (CXCR3 surface expression on CD4 positive cells, CXCL10); conditions: final CXCL10 9 nM, 30 min at 37° C., mean values
CXCR3, sequence (P49682 whole entry): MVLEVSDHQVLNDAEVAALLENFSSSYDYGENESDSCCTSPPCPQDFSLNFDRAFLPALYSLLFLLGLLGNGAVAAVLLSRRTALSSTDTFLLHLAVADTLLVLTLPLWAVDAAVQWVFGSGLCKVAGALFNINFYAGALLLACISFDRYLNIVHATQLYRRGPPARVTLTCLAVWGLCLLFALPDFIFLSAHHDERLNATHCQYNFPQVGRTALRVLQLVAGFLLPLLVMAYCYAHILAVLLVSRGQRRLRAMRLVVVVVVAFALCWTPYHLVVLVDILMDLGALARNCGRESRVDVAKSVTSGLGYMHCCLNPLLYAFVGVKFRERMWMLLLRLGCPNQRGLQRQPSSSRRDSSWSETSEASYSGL
Experimental: Diluted compounds are then mixed with an equal volume of CXCL10 (Peprotech) diluted in PBS. Anticoagulated venous human whole blood is added to the mixture, which is then incubated in a CO2 incubator at 37° C. to allow for ligand mediated receptor internalization (final CXCL10 concentration is 9 nM). After 30 min, the blood is mixed with fluorescently labeled CXCR3 and CD4 specific antibodies (Becton Dickinson) and incubated on ice for 10 minutes. Samples are then mixed with BD FACS Lysing Solution (Becton Dickinson) in order to eliminate red blood cells. After washing the cells with PBS containing 0.5% BSA, the samples are then analyzed in a flow cytometer (FACS Canto II, Becton Dickinson). For data analysis using FACSDiva software (Becton Dickinson), the mean fluorescence corresponding to CXCR3 cell surface expression was determined on CD4 positive cells. The program GraphPad Prism or similar software is used to fit the data to a single site dose response curve and to calculate IC50 values.
as §1

hERG K channel = hERG K channel (Homo sapiens (Human), UniProt Q12809); assay: hERG Q-Patch assay; conditions: CHO cells expressing hERG, K+ tail current 3 min after application, mean of two or three experiments
hERG K channel, sequence (Q12809 whole entry): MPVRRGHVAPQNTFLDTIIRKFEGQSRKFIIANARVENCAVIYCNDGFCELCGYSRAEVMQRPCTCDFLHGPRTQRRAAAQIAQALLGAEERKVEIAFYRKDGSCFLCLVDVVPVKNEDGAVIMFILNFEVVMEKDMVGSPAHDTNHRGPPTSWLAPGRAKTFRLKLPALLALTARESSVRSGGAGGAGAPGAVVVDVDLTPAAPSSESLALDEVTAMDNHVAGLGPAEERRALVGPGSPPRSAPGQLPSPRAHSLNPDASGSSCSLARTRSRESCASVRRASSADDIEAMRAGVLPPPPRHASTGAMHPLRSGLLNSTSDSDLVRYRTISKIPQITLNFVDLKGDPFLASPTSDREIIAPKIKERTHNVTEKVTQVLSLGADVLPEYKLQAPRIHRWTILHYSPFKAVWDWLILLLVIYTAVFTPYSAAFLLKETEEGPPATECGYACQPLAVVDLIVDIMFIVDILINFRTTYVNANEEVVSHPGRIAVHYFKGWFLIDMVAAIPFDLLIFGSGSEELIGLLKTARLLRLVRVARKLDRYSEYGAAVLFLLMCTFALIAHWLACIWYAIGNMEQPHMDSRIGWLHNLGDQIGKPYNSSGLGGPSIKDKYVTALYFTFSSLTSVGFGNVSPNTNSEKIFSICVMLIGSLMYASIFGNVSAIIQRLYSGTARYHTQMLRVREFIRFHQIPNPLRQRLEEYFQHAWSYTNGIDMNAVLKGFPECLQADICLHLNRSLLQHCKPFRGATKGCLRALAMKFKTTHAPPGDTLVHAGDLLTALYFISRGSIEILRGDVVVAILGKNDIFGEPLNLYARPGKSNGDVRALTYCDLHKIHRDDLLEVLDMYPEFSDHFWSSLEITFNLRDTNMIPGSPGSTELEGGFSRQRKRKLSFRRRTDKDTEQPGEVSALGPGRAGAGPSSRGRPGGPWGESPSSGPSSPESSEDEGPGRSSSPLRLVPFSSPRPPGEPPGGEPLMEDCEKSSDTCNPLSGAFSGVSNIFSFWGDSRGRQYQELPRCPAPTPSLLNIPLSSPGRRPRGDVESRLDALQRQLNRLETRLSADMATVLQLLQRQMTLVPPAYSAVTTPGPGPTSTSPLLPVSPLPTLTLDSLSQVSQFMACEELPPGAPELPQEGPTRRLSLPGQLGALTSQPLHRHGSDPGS
Experimental: Compounds are evaluated for block of the hERG K channel using CHO cells stably expressing the hERG gene (accession number U04270, bSys, Witterswil, Switzerland) and the QPatch robotic platform (Sophion, Ballerup, Denmark) in single-cell mode at room temperature. Cells are grown in culture flasks at 37° C. in 5% CO2, in culture medium (Ham's F-12 Nutrient Mixture, Invitrogen 21765-029) supplemented with 9% (v/v) fetal calf serum, 0.9% Penicillin/Streptomycin (10,000 U/mL, Invitrogen 15140148), 100 μg/mL Hygromycin B (Invitrogen 10687010). When the cells are ˜80% confluent (every 2-3 days), they are either split for further culture or used for electrophysiology. For further culture, cells are detached with 0.25% Trypsin EDTA solution (Invitrogen 25200-056) and a fraction of the cells (10-30%) is reseeded in culture medium. For electrophysiology, on the experimental day, cells are detached with 0.25% Trypsin EDTA solution and all cells are suspended in suspension medium (293 SFM II, Invitrogen 11686-029) supplemented with 20 mM HEPES and 0.04 mg/mL Trypsin inhibitor. Cells are kept in suspension medium at 32-35° C. in the QPatch robot until use, at which time aliquots are transferred to the extracellular solution (in mM: NaCl 150; KCl 4; CaCl2 1.2; MgCl2 1; HEPES 10; pH 7.4 with NaOH) containing 0.3% v/v DMSO and applied to the test plates. K^+ currents are measured with the patch-voltage-clamp technique in the whole-cell configuration with the internal solution (in mM: KCl, 140; NaCl, 10; MgCl2, 1; HEPES, 10: EGTA, 5; pH=7.2 with KOH). Currents are low-pass filtered using the internal Bessel filter of the QPatch robot with a cut-off frequency of 2 kHz and are digitized at 10 kHz. K^+ tail currents are produced from a holding voltage of −80 mV by a 500-ms depolarization to +20 mV followed by a 500-ms repolarization to −40 mV; tail current amplitudes are measured at the end of the repolarization to −40 mV. The pulse pattern is repeated every 10 sec during the experiment, baseline K^+ current is measured after 3 min in extracellular solution, test-solution containing compound is then applied, and K^+ current in presence of compound is measured 3 minutes after application to the cells. The respective test-solution is prepared by (1) dissolving the test-compound in pure DMSO, (2) diluting this DMSO solution in extracellular solution, and (3) adding further DMSO, such that the final test-solution has a concentration of either 300 nM or 3000 nM of the test-compound and contains 0.3% v/v DMSO. Compound effects are quantified as % block by dividing the current in presence of compound by the baseline current; two or three experiments are performed for each compound and the final value represents the mean of the results of each experiment.

human CXCR3A, sequence (P49682 whole entry): as the sequence (P49682 whole entry) above

Compound | IC50 (human CXCR3A) | IC50 (CXCR3) | % block (hERG K channel; concentration 300 nM) | % block (hERG K channel; concentration 3000 nM)
Cc1nc(C)n(CC(=O)N2CCN(c3sc(C(F)(F)F)nc3-c3cnc(C(F)(F)F)nc3)C[C@H]2CO)n1 [Example 2, 2-(3,5-Dimethyl-[1,2,4]triazol-1-yl)-1-{(S)-2-hydroxymethyl-4-[2-trifluoromethyl-4-(2-trifluoromethyl-pyrimidin-5-yl)-thiazol-5-yl]-piperazin-1-yl}-ethanone] | 6 nM | 463 nM | −3% | −4%
COCc1ncn(CC(=O)N2CCN(c3sc(C(F)(F)F)nc3-c3cnc(C(F)(F)F)nc3)C[C@@H]2CO)n1 [Example 17, 1-{(R)-2-Hydroxymethyl-4-[2-trifluoromethyl-4-(2-trifluoromethyl-pyrimidin-5-yl)-thiazol-5-yl]-piperazin-1-yl}-2-(3-methoxymethyl-[1,2,4]triazol-1-yl)-ethanone] | 5.9 nM | 1290 nM | 2% | 6%
CC(=O)c1ncn(CC(=O)N2CCN(c3sc(C(F)(F)F)nc3-c3cnc(C(F)(F)F)nc3)C[C@@H]2CO)n1 [Example 20, 2-(3-Acetyl-[1,2,4]triazol-1-yl)-1-{(R)-2-hydroxymethyl-4-[2-trifluoromethyl-4-(2-trifluoromethyl-pyrimidin-5-yl)-thiazol-5-yl]-piperazin-1-yl}-ethanone] | 6.4 nM | 2380 nM | 2% | 3%
O=C(Cn1cnc(C(F)(F)F)n1)N1CCN(c2sc(C(F)(F)F)nc2-c2cnc(C(F)(F)F)nc2)C[C@H]1CO [Example 5, 1-{(S)-2-Hydroxymethyl-4-[2-trifluoromethyl-4-(2-trifluoromethyl-pyrimidin-5-yl)-thiazol-5-yl]-piperazin-1-yl}-2-(3-trifluoromethyl-[1,2,4]triazol-1-yl)-ethanone] | 4 nM | 328 nM | −2% | 7%
CC(C)c1ncn(CC(=O)N2CCN(c3sc(C(F)(F)F)nc3-c3cnc(C(F)(F)F)nc3)C[C@H]2CO)n1 [Example 4, 1-{(S)-2-Hydroxymethyl-4-[2-trifluoromethyl-4-(2-trifluoromethyl-pyrimidin-5-yl)-thiazol-5-yl]-piperazin-1-yl}-2-(3-isopropyl-[1,2,4]triazol-1-yl)-ethanone] | 1.8 nM | 283 nM | 4% | 13%
CC(O)c1ncn(CC(=O)N2CCN(c3sc(C(F)(F)F)nc3-c3cnc(C(F)(F)F)nc3)C[C@@H]2CO)n1 (stereo partly drawn) [Example 21, 2-[3-(1-Hydroxy-ethyl)-[1,2,4]triazol-1-yl]-1-{(R)-2-hydroxymethyl-4-[2-trifluoromethyl-4-(2-trifluoromethyl-pyrimidin-5-yl)-thiazol-5-yl]-piperazin-1-yl}-ethanone] | 4.3 nM | 737 nM |  | 
O=C(Cn1cnc(-c2ccccn2)n1)N1CCN(c2sc(C(F)(F)F)nc2-c2cnc(C(F)(F)F)nc2)C[C@@H]1CO [Example 23, 1-{(R)-2-Hydroxymethyl-4-[2-trifluoromethyl-4-(2-trifluoromethyl-pyrimidin-5-yl)-thiazol-5-yl]-piperazin-1-yl}-2-(3-pyridin-2-yl-[1,2,4]triazol-1-yl)-ethanone] | 35 nM | 2730 nM |  | 
CCc1nc(C)n(CC(=O)N2CCN(c3sc(C(F)(F)F)nc3-c3cnc(C(F)(F)F)nc3)C[C@@H]2CO)n1 [Example 24, 2-(3-ethyl-5-methyl-[1,2,4]triazol-1-yl)-1-{(R)-2-hydroxymethyl-4-[2-trifluoromethyl-4-(2-trifluoromethyl-pyrimidin-5-yl)-thiazol-5-yl]-piperazin-1-yl}-ethanone] | 7.6 nM | 355 nM |  | 

Second part, led by results:

IC50 (human CXCR3A) | IC50 (CXCR3) | Compound | % block (hERG K channel; concentration 300 nM) | % block (hERG K channel; concentration 3000 nM)
8 nM | 451 nM | Cc1ncnn1CC(=O)N1CCN(c2sc(C(F)(F)F)nc2-c2cnc(C(F)(F)F)nc2)C[C@H]1CCO [Example 36, 1-{(R)-2-(2-Hydroxy-ethyl)-4-[2-trifluoromethyl-4-(2-trifluoromethyl-pyrimidin-5-yl)-thiazol-5-yl]-piperazin-1-yl}-2-(5-methyl-[1,2,4]triazol-1-yl)-ethanone] | 10% | 19%
4.5 nM | 84.8 nM | CC(C)c1ncn(CC(=O)N2CCN(c3sc(C(F)(F)F)nc3-c3cnc(C(F)(F)F)nc3)C[C@H]2CCO)n1 [Example 34, 1-{(R)-2-(2-Hydroxy-ethyl)-4-[2-trifluoromethyl-4-(2-trifluoromethyl-pyrimidin-5-yl)-thiazol-5-yl]-piperazin-1-yl}-2-(3-isopropyl-[1,2,4]triazol-1-yl)-ethanone] | 10% | 34%
1 nM | 46.3 nM | Cc1ccn(CC(=O)N2CCN(c3sc(C(F)(F)F)nc3-c3cnc(C(F)(F)F)nc3)C[C@H]2CCO)n1 [Example 39, 1-{(R)-2-(2-Hydroxy-ethyl)-4-[2-trifluoromethyl-4-(2-trifluoromethyl-pyrimidin-5-yl)-thiazol-5-yl]-piperazin-1-yl}-2-(3-methyl-pyrazol-1-yl)-ethanone] | 1% | 32%
5.7 nM | 393 nM | COCc1ncn(CC(=O)N2CCN(c3sc(C(F)(F)F)nc3-c3cnc(C(F)(F)F)nc3)C[C@H]2CCO)n1 [Example 37, 1-{(R)-2-(2-Hydroxy-ethyl)-4-[2-trifluoromethyl-4-(2-trifluoromethyl-pyrimidin-5-yl)-thiazol-5-yl]-piperazin-1-yl}-2-(3-methoxymethyl-[1,2,4]triazol-1-yl)-ethanone] | 4% | 9%
3.5 nM | 74.2 nM | O=C(Cn1cnc2cccnc21)N1CCN(c2sc(C(F)(F)F)nc2-c2cnc(C(F)(F)F)nc2)C[C@@H]1CO [Example 26, 1-{(R)-2-Hydroxymethyl-4-[2-trifluoromethyl-4-(2-trifluoromethyl-pyrimidin-5-yl)-thiazol-5-yl]-piperazin-1-yl}-2-imidazo[4,5-b]pyridin-3-yl-ethanone] |  | 
1.2 nM | 40.3 nM | CCc1ccn(CC(=O)N2CCN(c3sc(C(F)(F)F)nc3-c3cnc(C(F)(F)F)nc3)C[C@H]2CO)n1 [Example 43, 2-(3-Ethyl-pyrazol-1-yl)-1-{(S)-2-hydroxymethyl-4-[2-trifluoromethyl-4-(2-trifluoromethyl-pyrimidin-5-yl)-thiazol-5-yl]-piperazin-1-yl}-ethanone] | 5% | 25%
8.6 nM | 258 nM | O=C(Cn1cnc(C(F)F)n1)N1CCN(c2sc(C(F)(F)F)nc2-c2cnc(C(F)(F)F)nc2)C[C@@H]1CO [Example 38, 2-(3-Difluoromethyl-[1,2,4]triazol-1-yl)-1-{(R)-2-hydroxymethyl-4-[2-trifluoromethyl-4-(2-trifluoromethyl-pyrimidin-5-yl)-thiazol-5-yl]-piperazin-1-yl}-ethanone] |  | 
3.6 nM | 664 nM | CCc1nc(C)nn1CC(=O)N1CCN(c2sc(C(F)(F)F)nc2-c2cnc(C(F)(F)F)nc2)C[C@@H]1CO [Example 25, 2-(5-ethyl-3-methyl-[1,2,4]triazol-1-yl)-1-{(R)-2-hydroxymethyl-4-[2-trifluoromethyl-4-(2-trifluoromethyl-pyrimidin-5-yl)-thiazol-5-yl]-piperazin-1-yl}-ethanone] |  | 
